This is an account of results in PubChem BioAssay AID296 (DTP/NCI, 2004).

This assay relates to MX-1 breast xenograft, nude mice, tumor weight T/C. In words: NCI In Vivo Anticancer Drug Screen. Data for tumor model Human Mammary Carcinoma MX-1 Xenograft (intrarenal inoculation) in NU/NU Swiss (nude) mice. To be noted: endpoint: mean tumor weight change, higher = larger tumour. In short, it runs like this:
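Tumor-bearing mice were treated with test compound alongside a vehicle-treated control group. Survival or tumor size was measured, and activity is expressed as the treated-group value divided by the control-group value.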

Setting [1] is: dose: 600.0 mg/kg/injection, schedule: Q04DX003 (sc), vehicle: saline with Tween-80.
Where [2] appears, read: dose: 600.0 mg/kg/injection, schedule: Q04DX003 (sc), vehicle: suspension in saline.
Where [3] appears, read: dose: 50.0 mg/kg/injection, schedule: Q01DX010 (sc), vehicle: saline with Tween-80.
The mark [4] stands for this setting: dose: 100.0 mg/kg/injection, schedule: Q01DX010 (sc), vehicle: saline with Tween-80.

Values joined by “and” are separate entries in the source; they are usually repeats but may differ in a detail not shown here. Equal values may be shown once. Records with an inconclusive call do not appear.

As to `c1cc(-c2cc3ccc(C4=NCCN4)cc3[nH]2)ccc1C1=NCCN1`, the T/C runs as follows: (dose: 25.0 mg/kg/injection, schedule: Q04DX003 (sc), vehicle: saline) 66 % of control; (dose: 50.0 mg/kg/injection, schedule: Q04DX003 (sc), vehicle: saline) 73 % of control; (dose: 100.0 mg/kg/injection, schedule: Q04DX003 (sc), vehicle: saline) 50 % of control.
In the case of `NS(=O)(=O)OCCCCCCCOS(N)(=O)=O`, the T/C (dose: 150.0 mg/kg/injection, schedule: Q04DX003 (ip), vehicle: saline with Tween-80) was -97 % of control.
As to `COC1C(N)C(OC2C(Oc3cccc4c(O)c5c(=O)oc6ccc(C)c7c(=O)oc(c34)c5c67)OC(C)C(O)C2(C)O)OC(C)C1O` (stereo not given), the T/C was 51 % of control (dose: 2.5 mg/kg/injection, schedule: Q04DX003 (ip), vehicle: lactic acid); 49 % of control (dose: 5.0 mg/kg/injection, schedule: Q04DX003 (ip), vehicle: lactic acid); 9 % of control (dose: 10.0 mg/kg/injection, schedule: Q04DX003 (ip), vehicle: lactic acid).
Regarding `CCC1=C[C@H]2CN(CCc3c([nH]c4ccccc34)[C@@](C(=O)OC)(c3cc4c(cc3OC)N(C)[C@H]3[C@@](O)(C(=O)NC)[C@H](OC(C)=O)[C@]5(CC)C=CCN6CC[C@]43[C@@H]65)C2)C1`, the T/C is 48 % of control (dose: 1.0 mg/kg/injection, schedule: Q04DX003 (sc), vehicle: water) and 45 % of control (dose: 2.0 mg/kg/injection, schedule: Q04DX003 (sc), vehicle: water).
Regarding `OCC1OC(n2cnc3c(=S)nc[nH]c32)C(O)C1O` (stereo not given), the T/C is, setting by setting: (dose: 25.0 mg/kg/injection, schedule: Q01DX010 (sc), vehicle: saline) 38 % of control and 60 % of control; (dose: 50.0 mg/kg/injection, schedule: Q01DX010 (sc), vehicle: suspension in saline) 84 % of control; (dose: 100.0 mg/kg/injection, schedule: Q01DX010 (sc), vehicle: saline) 12 % of control and 17 % of control; (dose: 100.0 mg/kg/injection, schedule: Q01DX010 (sc), vehicle: suspension in saline) -81 % of control; (dose: 200.0 mg/kg/injection, schedule: Q01DX010 (sc), vehicle: saline) -22 % of control; (dose: 300.0 mg/kg/injection, schedule: Q04DX003 (sc), vehicle: saline) 98 % of control. The T/C runs as follows: (dose: 600.0 mg/kg/injection, schedule: Q04DX003 (sc), vehicle: saline) 69 % of control; (dose: 1200.0 mg/kg/injection, schedule: Q04DX003 (sc), vehicle: saline) 39 % of control; (dose: 2400.0 mg/kg/injection, schedule: Q04DX003 (sc), vehicle: saline) 13 % of control.
Regarding `O/N=C/c1ccccc1O.O/N=C/c1ccccc1O.[Cu]`, the T/C (dose: 300.0 mg/kg/injection, schedule: Q04DX003 (sc), vehicle: saline with Tween-80) was 81 % of control; the T/C under setting [1] is 72 % of control; the T/C (dose: 1200.0 mg/kg/injection, schedule: Q04DX003 (sc), vehicle: saline with Tween-80) is 60 % of control; the T/C (dose: 2400.0 mg/kg/injection, schedule: Q04DX003 (sc), vehicle: saline with Tween-80) is 103 % of control.
Consider `C/C=C/c1cc2n(c1)C(=O)c1cc(OC3OC(C)C(NC)C(C)(O)C3O)c(C)c(O)c1NC2O` (stereo not given), for which the T/C reads like this: (dose: 100.0 micrograms/kg/injection, schedule: Q04DX003 (sc), vehicle: saline) 182 % of control; (dose: 200.0 micrograms/kg/injection, schedule: Q04DX003 (sc), vehicle: saline) 22 % of control; (dose: 400.0 micrograms/kg/injection, schedule: Q04DX003 (sc), vehicle: saline) 91 % of control.
With `CCCCn1cnc2c(=S)nc[nH]c21`, the T/C (dose: 300.0 mg/kg/injection, schedule: Q04DX003 (sc), vehicle: suspension in saline) is 119 % of control; the T/C under setting [2] was 81 % of control; the T/C (dose: 1024.0 mg/kg/injection, schedule: Q04DX003 (sc), vehicle: suspension in saline) is 67 % of control; the T/C (dose: 1200.0 mg/kg/injection, schedule: Q04DX003 (sc), vehicle: suspension in saline) was 16 % of control; the T/C (dose: 1600.0 mg/kg/injection, schedule: Q04DX003 (sc), vehicle: suspension in saline) is 49 % of control; the T/C (dose: 2000.0 mg/kg/injection, schedule: Q04DX003 (sc), vehicle: suspension in saline) was 4 % of control.
As to `CCN(CC)CCCC(C)Nc1c2ccc(Cl)cc2nc2ccc(OC)cc12` (stereo not given), the T/C reads like this: under setting [3], 158 % of control; under setting [4], 110 % of control.
On to `COC1=C2C[C@@H](C)C[C@@H](OC)[C@@H](O)[C@H](C)/C=C(\C)[C@@H](OC(N)=O)[C@H](OC)/C=C\C=C(/C)C(=O)NC(=CC1=O)C2=O`, for which the T/C was 102 % of control (dose: 4.0 mg/kg/injection, schedule: Q04DX003 (sc), vehicle: saline); 89 % of control (dose: 8.0 mg/kg/injection, schedule: Q04DX003 (sc), vehicle: saline); 89 % of control (dose: 16.0 mg/kg/injection, schedule: Q04DX003 (sc), vehicle: saline); 88 % of control and 94 % of control (dose: 32.0 mg/kg/injection, schedule: Q04DX003 (sc), vehicle: saline); 85 % of control (dose: 64.0 mg/kg/injection, schedule: Q04DX003 (sc), vehicle: saline); 66 % of control (dose: 128.0 mg/kg/injection, schedule: Q04DX003 (sc), vehicle: saline).
On to `CCNC(=O)OCc1c(COC(=O)NCC)c(-c2ccc(Cl)c(Cl)c2)n2c1CCC2`, for which the T/C is 46 % of control (dose: 12.5 mg/kg/injection, schedule: Q01DX010 (sc), vehicle: saline with Tween-80); 10 % of control (dose: 25.0 mg/kg/injection, schedule: Q01DX010 (sc), vehicle: saline with Tween-80); 3 % of control and 8 % of control under setting [3]; 4 % of control under setting [4].
As to `CC1c2ccccc2CC(CCN(C)C)c2ccccc21` (stereo not given), the T/C was 101 % of control (dose: 9.37 mg/kg/injection, schedule: Q04DX003 (sc), vehicle: saline with Tween-80); 63 % of control (dose: 12.5 mg/kg/injection, schedule: Q04DX003 (sc), vehicle: saline with Tween-80); 83 % of control (dose: 18.75 mg/kg/injection, schedule: Q04DX003 (sc), vehicle: saline with Tween-80); 54 % of control (dose: 25.0 mg/kg/injection, schedule: Q04DX003 (sc), vehicle: saline with Tween-80); 52 % of control (dose: 37.5 mg/kg/injection, schedule: Q04DX003 (sc), vehicle: saline with Tween-80); 65 % of control (dose: 50.0 mg/kg/injection, schedule: Q04DX003 (sc), vehicle: saline with Tween-80). Also, the T/C (dose: 75.0 mg/kg/injection, schedule: Q04DX003 (sc), vehicle: saline with Tween-80) is 26 % of control; the T/C (dose: 100.0 mg/kg/injection, schedule: Q04DX003 (sc), vehicle: saline with Tween-80) was 38 % of control; the T/C (dose: 150.0 mg/kg/injection, schedule: Q04DX003 (sc), vehicle: saline with Tween-80) was -3 % of control; the T/C under setting [1] is -19 % of control.
Turning to `NC(=O)SCC(N)C(=O)O` (stereo not given), the T/C was 73 % of control (dose: 225.0 mg/kg/injection, schedule: Q04DX003 (sc), vehicle: suspension in saline); 62 % of control (dose: 400.0 mg/kg/injection, schedule: Q04DX003 (sc), vehicle: suspension in saline); 49 % of control (dose: 450.0 mg/kg/injection, schedule: Q04DX003 (sc), vehicle: suspension in saline); 57 % of control under setting [2].
`O=c1n(CC2CO2)c(=O)n(CC2CO2)n1CC1CO1` (stereo not given): the T/C runs as follows: (dose: 9.38 mg/kg/injection, schedule: Q04DX003 (sc), vehicle: saline) 57 % of control; (dose: 18.7 mg/kg/injection, schedule: Q04DX003 (sc), vehicle: saline) 4 % of control; (dose: 18.75 mg/kg/injection, schedule: Q04DX003 (sc), vehicle: saline) 2 % of control; (dose: 29.0 mg/kg/injection, schedule: Q04DX003 (sc), vehicle: saline) -11 % of control; (dose: 37.5 mg/kg/injection, schedule: Q04DX003 (sc), vehicle: saline) -83 % of control and -73 % of control.
Turning to `N#CN=[N+]([O-])c1ccc(C(=O)O)cc1`, the T/C (dose: 11.25 mg/kg/injection, schedule: Q04DX003 (sc), vehicle: Klucel (hydroxypropylcellulose) (HPC)) is 124 % of control; the T/C (dose: 22.5 mg/kg/injection, schedule: Q04DX003 (sc), vehicle: Klucel (hydroxypropylcellulose) (HPC)) was 87 % of control; the T/C (dose: 45.0 mg/kg/injection, schedule: Q04DX003 (sc), vehicle: Klucel (hydroxypropylcellulose) (HPC)) was 103 % of control.
